Results on one compound are retold here after patent US10258291B2, “Systems and methods for evaluation of neuropathologies” (The Regents of the University of California, priority 2012, dated 2019).

“Also recorded” adds a separate entry of the source.

Experiment [1] relates to rhesus macaques (Macaca mulatta). The experiment in a line: Mismatch negativity (MMN) ERP in macaque EEG, auditory oddball paradigm, under ketamine, saline and 5 h post-ketamine. It counts as in vivo. From the text:
(§1) In exemplary implementations of the disclosed technology to assess the efficacy of a treatment for a neuropsychiatric disorder, two adult male rhesus macaques (Macaca mulatta), e.g., 6 and 7 years old, were used. All procedures and animal care were approved by the Salk Institute Animal Care and Use Committee and carried out in accordance with the US National Institutes of Health Guide for the Care and Use of Laboratory Animals.
(§2) The exemplary stimuli presentation structure included a passive auditory intensity oddball paradigm to present different intensity tones to subjects sitting in an isolated, dimly lit room during the implementations. For example, the auditory stimuli included 100 ms (e.g., 10 ms rise/fall) pure sinusoidal tones (e.g., 1500 Hz) of either a low or a high intensity. Frequent (standard) and infrequent (deviant) stimuli were presented 80% and 20% of the time, respectively, as depicted in FIG. 4. The inter-stimulus interval was 700 ms. For example, twelve hundred standard and three hundred deviant stimuli were presented in each recording session. For example, both high-deviant (e.g., low-standard) and low-deviant (e.g., high-standard) conditions were used, e.g., to allow comparison of the responses to identical stimuli (e.g., low or high) in different contexts (e.g., standard or deviant).
(§3) For example, EEG scalp recordings were acquired with the Vision Recorder software using a BrainAmpMR system. An exemplary custom-designed 22-channel NHP EEG cap with AgCl electrodes was developed and used for the non-human primate subject data collection (e.g., PCB Ribbon Cable for BrainCap-MR with 5 k resistors; BrainCap MR Box 1.2; sintered ring electrodes with 1.5 mm touchproof safety socket termination and 120 cm heavy-duty leadwire).
(§4) The exemplary EEG data collection technique for the NHP subjects included the following preparation steps. […]
(§5) The exemplary EEG data was analyzed using Analyzer 2.0 software. […]

The test system is the same in experiment [2]. Put plainly: P300 (P3) ERP in macaque EEG, auditory oddball paradigm, under ketamine, saline and 5 h post-ketamine. In kind it is in vivo.
Text: as §1, §2, §3, §4, §5

[3] abbreviates: ketamine, saline, 5 h post-ketamine.

Turning to `CNC1(c2ccccc2Cl)CCCCC1=O` (stereo not drawn) [ketamine], the “Effect of ketamine on MMN 5 h after infusion” value in experiment [1] (5 h-post ketamine vs. saline F(1,290)=0.20, p=0.652, ketamine vs. 5 h-post ketamine F(1,403)=7.97, p=0.005) is “no longer significant; also recorded: full recovery”. Also, in experiment [1] (acute subanesthetic ketamine infusion 1 mg/Kg, vs. vehicle saline, F(1,290)=4.47, p=0.035, Cz electrode), the “MMN amplitude, ketamine vs. saline” value was “significant reduction”. The “MMN latency differences across conditions” value in experiment [1] (setting [3]) is given as “No significant latency differences”. Moreover, the “Effect of ketamine on P300 (P3) 5 h after infusion” value in experiment [2] (5 h-post ketamine vs. saline F(1,301)=0.06, p=0.803, ketamine vs. 5 h-post ketamine F(1,411)=44.34, p=0.000) is reported as “no longer significant; also recorded: full recovery”. The “P300 amplitude, ketamine vs. saline” value in experiment [2] (acute subanesthetic ketamine infusion 1 mg/Kg, vs. vehicle saline, F(1,301)=27.73, p=0.000, Cz electrode) was “significant reduction”. For the same compound, in experiment [2] (setting [3]), the “P300 latency differences across conditions” value is “No significant latency differences”.
